Reference: ChEMBL document CHEMBL4665642, “Anticancer profile of newly synthesized BRAF inhibitors possess 5-(pyrimidin-4-yl)imidazo[2,1-b]thiazole scaffold” (Bioorg Med Chem, 2019)
pIC50: −log10 of the molar value.

Assays:
RXF 393 = experiment: Cytotoxicity against human RXF 393 cells assessed as cell viability at 10 uM incubated for 48 hrs by sulforhodamine B assay relative to control; assay type: functional; conditions: read-out: Activity
MOLT-4 = experiment: Cytotoxicity against human MOLT-4 cells assessed as cell viability at 10 uM incubated for 48 hrs by sulforhodamine B assay relative to control; assay type: functional; conditions: read-out: Activity
HOP-62 = experiment: Cytotoxicity against human HOP-62 cells assessed as cell viability at 10 uM incubated for 48 hrs by sulforhodamine B assay relative to control; assay type: functional; conditions: read-out: Activity
[1] = target: Serine/threonine-protein kinase B-raf (Homo sapiens, UniProt P15056, V600E); experiment: Inhibition of human BRAF V600E mutant using MEK1 as substrate by […] assay
KM12 = experiment: Cytotoxicity against human KM12 cells assessed as cell viability at 10 uM incubated for 48 hrs by sulforhodamine B assay relative to control; assay type: functional; conditions: read-out: Activity
UACC-62 = experiment: Cytotoxicity against human UACC-62 cells assessed as cell viability at 10 uM incubated for 48 hrs by sulforhodamine B assay relative to control; assay type: functional; conditions: read-out: Activity
HOP-92 = experiment: Cytotoxicity against human HOP-92 cells assessed as cell viability at 10 uM incubated for 48 hrs by sulforhodamine B assay relative to control; assay type: functional; conditions: read-out: Activity
[2] = target: RAF proto-oncogene serine/threonine-protein kinase (Homo sapiens, UniProt P04049); experiment: Inhibition of human CRAF using MEK1 as substrate by [gamma-33P]-ATP assay
A-375 = experiment: Cytotoxicity against human A-375 cells assessed as reduction in cell viability by MTT assay; assay type: functional, cell-based
HCT-29 = experiment: Cytotoxicity against human […] cells assessed as cell viability at 10 uM incubated for 48 hrs by sulforhodamine B assay relative to control; assay type: functional; conditions: read-out: Activity
LOX IMVI = experiment: Cytotoxicity against human LOX IMVI cells assessed as cell viability at 10 uM incubated for 48 hrs by sulforhodamine B assay relative to control; assay type: functional; conditions: read-out: Activity
MCF7 = experiment: Cytotoxicity against human MCF7 cells assessed as cell viability at 10 uM incubated for 48 hrs by sulforhodamine B assay relative to control; assay type: functional; conditions: read-out: Activity
SNB-19 = experiment: Cytotoxicity against human SNB-19 cells assessed as cell viability at 10 uM incubated for 48 hrs by sulforhodamine B assay relative to control; assay type: functional; conditions: read-out: Activity
CAKI-1 = experiment: Cytotoxicity against human CAKI-1 cells assessed as cell viability at 10 uM incubated for 48 hrs by sulforhodamine B assay relative to control; assay type: functional; conditions: read-out: Activity
OVCAR-4 = experiment: Cytotoxicity against human OVCAR-4 cells assessed as cell viability at 10 uM incubated for 48 hrs by sulforhodamine B assay relative to control; assay type: functional; conditions: read-out: Activity
L132 = experiment: Cytotoxicity against human L132 cells assessed as reduction in cell viability by MTT assay; assay type: cell-based
EKVX = experiment: Cytotoxicity against human EKVX cells assessed as cell viability at 10 uM incubated for 48 hrs by sulforhodamine B assay relative to control; assay type: functional; conditions: read-out: Activity
OVCAR-3 = experiment: Cytotoxicity against human OVCAR-3 cells assessed as cell viability at 10 uM incubated for 48 hrs by sulforhodamine B assay relative to control; assay type: functional; conditions: read-out: Activity
SN12C = experiment: Cytotoxicity against human SN12C cells assessed as cell viability at 10 uM incubated for 48 hrs by sulforhodamine B assay relative to control; assay type: functional; conditions: read-out: Activity
NCI-H522 = experiment: Cytotoxicity against human NCI-H522 cells assessed as cell viability at 10 uM incubated for 48 hrs by sulforhodamine B assay relative to control; assay type: functional; conditions: read-out: Activity
PC-3 = experiment: Cytotoxicity against human PC-3 cells assessed as cell viability at 10 uM incubated for 48 hrs by sulforhodamine B assay relative to control; assay type: functional; conditions: read-out: Activity
SK-MEL-28 [3] = experiment: Cytotoxicity against human SK-MEL-28 cells assessed as reduction in cell viability by MTT assay; assay type: functional, cell-based
[4] = target: Serine/threonine-protein kinase B-raf (Homo sapiens, UniProt P15056); experiment: Inhibition of human BRAF using MEK1 as substrate by […] assay
SK-MEL-28 [5] = experiment: Cytotoxicity against human SK-MEL-28 cells assessed as cell viability at 10 uM incubated for 48 hrs by sulforhodamine B assay relative to control; assay type: functional; conditions: read-out: Activity
HCT-116 = experiment: Cytotoxicity against human HCT-116 cells assessed as cell viability at 10 uM incubated for 48 hrs by sulforhodamine B assay relative to control; assay type: functional; conditions: read-out: Activity

Chain of Serine/threonine-protein kinase B-raf (Homo sapiens, UniProt P15056) (P15056 whole entry): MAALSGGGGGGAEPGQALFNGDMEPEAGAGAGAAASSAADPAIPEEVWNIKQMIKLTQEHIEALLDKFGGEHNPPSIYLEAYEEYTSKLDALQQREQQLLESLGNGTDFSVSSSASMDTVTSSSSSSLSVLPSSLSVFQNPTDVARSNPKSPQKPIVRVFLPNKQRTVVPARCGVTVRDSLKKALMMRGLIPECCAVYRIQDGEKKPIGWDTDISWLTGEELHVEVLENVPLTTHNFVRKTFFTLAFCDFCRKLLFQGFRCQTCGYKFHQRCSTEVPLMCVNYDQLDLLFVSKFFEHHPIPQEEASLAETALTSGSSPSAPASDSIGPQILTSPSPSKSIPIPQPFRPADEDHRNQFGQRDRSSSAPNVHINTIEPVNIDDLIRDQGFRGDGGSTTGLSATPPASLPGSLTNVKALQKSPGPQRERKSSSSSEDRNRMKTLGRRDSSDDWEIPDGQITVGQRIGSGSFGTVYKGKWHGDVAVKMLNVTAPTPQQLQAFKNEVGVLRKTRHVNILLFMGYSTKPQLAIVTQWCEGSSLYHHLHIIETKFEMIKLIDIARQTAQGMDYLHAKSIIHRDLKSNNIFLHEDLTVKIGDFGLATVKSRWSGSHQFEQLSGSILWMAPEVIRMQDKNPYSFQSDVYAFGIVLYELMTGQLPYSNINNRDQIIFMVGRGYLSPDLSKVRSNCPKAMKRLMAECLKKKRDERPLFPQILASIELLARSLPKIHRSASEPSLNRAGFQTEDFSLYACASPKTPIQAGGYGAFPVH
Chain of Serine/threonine-protein kinase B-raf (Homo sapiens, UniProt P15056, V600E) (P15056 2-766 V600E limits assumed): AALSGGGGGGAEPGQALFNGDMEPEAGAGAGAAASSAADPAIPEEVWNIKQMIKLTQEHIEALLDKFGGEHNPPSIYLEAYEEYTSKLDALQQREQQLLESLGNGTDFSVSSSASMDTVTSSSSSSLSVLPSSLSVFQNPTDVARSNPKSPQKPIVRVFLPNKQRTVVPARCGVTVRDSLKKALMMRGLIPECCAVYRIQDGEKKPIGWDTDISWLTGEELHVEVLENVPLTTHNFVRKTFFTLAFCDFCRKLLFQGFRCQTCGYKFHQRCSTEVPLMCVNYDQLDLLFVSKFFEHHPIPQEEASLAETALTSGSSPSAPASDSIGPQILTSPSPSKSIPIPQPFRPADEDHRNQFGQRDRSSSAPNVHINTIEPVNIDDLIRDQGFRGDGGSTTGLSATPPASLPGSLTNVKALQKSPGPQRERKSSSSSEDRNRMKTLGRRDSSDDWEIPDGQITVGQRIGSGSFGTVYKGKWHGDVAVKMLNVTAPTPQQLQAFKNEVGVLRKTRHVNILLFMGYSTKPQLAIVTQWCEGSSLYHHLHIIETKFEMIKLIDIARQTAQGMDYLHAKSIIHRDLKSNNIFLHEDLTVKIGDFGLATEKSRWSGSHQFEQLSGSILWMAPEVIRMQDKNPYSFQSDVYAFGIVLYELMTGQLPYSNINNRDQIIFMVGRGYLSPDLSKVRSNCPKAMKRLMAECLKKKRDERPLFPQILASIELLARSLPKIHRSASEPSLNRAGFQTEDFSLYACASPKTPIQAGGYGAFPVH
Chain of RAF proto-oncogene serine/threonine-protein kinase (P04049 whole entry): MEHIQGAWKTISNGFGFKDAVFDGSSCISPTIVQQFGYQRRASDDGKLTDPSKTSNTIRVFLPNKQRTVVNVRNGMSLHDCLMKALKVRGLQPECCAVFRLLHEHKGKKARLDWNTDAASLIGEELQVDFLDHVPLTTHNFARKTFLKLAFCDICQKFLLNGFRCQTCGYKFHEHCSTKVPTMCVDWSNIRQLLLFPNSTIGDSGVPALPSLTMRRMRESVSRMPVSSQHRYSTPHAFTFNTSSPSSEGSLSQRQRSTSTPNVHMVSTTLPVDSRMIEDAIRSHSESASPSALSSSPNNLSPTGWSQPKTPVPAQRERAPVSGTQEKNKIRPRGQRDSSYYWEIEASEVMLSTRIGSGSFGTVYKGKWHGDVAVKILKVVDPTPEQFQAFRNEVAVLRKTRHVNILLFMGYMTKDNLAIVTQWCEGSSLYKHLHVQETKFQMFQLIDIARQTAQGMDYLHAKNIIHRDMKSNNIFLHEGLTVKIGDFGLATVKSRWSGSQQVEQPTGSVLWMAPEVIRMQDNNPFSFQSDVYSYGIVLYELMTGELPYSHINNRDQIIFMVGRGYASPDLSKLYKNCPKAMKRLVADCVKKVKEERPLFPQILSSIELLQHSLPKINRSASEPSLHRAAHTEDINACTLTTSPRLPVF

Structure (SMILES) | viability at 10 µM (RXF 393) [%] | viability at 10 µM (MOLT-4) [%] | viability at 10 µM (HOP-62) [%] | pIC50 [1] | viability at 10 µM (KM12) [%] | viability at 10 µM (UACC-62) [%] | viability at 10 µM (HOP-92) [%] | pIC50 [2] | pIC50 (A-375) | viability at 10 µM (HCT-29) [%] | viability at 10 µM (LOX IMVI) [%] | viability at 10 µM (MCF7) [%] | viability at 10 µM (SNB-19) [%] | viability at 10 µM (CAKI-1) [%] | viability at 10 µM (OVCAR-4) [%] | pIC50 (L132) | viability at 10 µM (EKVX) [%] | viability at 10 µM (OVCAR-3) [%] | viability at 10 µM (SN12C) [%] | viability at 10 µM (NCI-H522) [%] | other results
O=S(=O)(NCCCNc1nccc(-c2c(-c3cccc(F)c3)nc3sccn23)n1)c1ccc(C(F)(F)F)cc1 | 94.7 | 62 | 104 | 7.59 | 88.5 | 80.4 | 94.8 | 7.40 | 5.39 | 80.1 | 86.7 | 82.1 | 96.1 | 67.9 | 93 | 3.49 | 87.3 | 92.8 | 89 | 85.5 | viability at 10 µM (PC-3): 67.8%; pIC50 (SK-MEL-28 [3]): 4.93; pIC50 [4]: 7.20; viability at 10 µM (SK-MEL-28 [5]): 116%; viability at 10 µM (HCT-116): 86.2%
O=C(NCCNc1nccc(-c2c(-c3cccc(F)c3)nc3sccn23)n1)c1c(F)cccc1F | 57.1 | 35.9 | 63.8 | 7.48 | 47.7 | 10.3 | 66.2 | 6.99 | 5.57 | 20.4 | 32.4 | 17.5 | 55.2 | 34.5 | 60.9 | 3.70 | 61.2 | 56.8 | 45 | 42.8 | viability at 10 µM (PC-3): 57%; pIC50 (SK-MEL-28 [3]): 4.94; pIC50 [4]: 7.02; viability at 10 µM (SK-MEL-28 [5]): 51.1%; viability at 10 µM (HCT-116): 24.9%
